This passage reports relative viability results from the supplement of paper PMC10307832.

Common to all, as to test: relative viability (nuclei count vs DMSO), 5 days (fraction); higher = more cells survive
Compound in the experiment “VX-702 + Luminespib”: NC(=O)c1ccc(N(C(N)=O)c2c(F)cccc2F)nc1-c1ccc(F)cc1F [VX-702] + CCNC(=O)c1noc(-c2cc(C(C)C)c(O)cc2O)c1-c1ccc(CN2CCOCC2)cc1 [Luminespib] (partner 0.01 µM)
In a few lines: (§1)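 Values are medians from duplicate plates. Each reflects relative viability, defined as the nuclei count of treated wells over that of vehicle wells. Lung cancer cell lines in 1536-well plates were pin-tool dosed one day after seeding with one drug alone or with a fixed anchor-drug dose plus five library-drug doses (not always all listed) in √10 steps, then fixed, stained and imaged at 4× after 5 days.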

Compound in the experiment “VX-702 + Navitoclax”: NC(=O)c1ccc(N(C(N)=O)c2c(F)cccc2F)nc1-c1ccc(F)cc1F [VX-702] + CC1(C)CCC(c2ccc(Cl)cc2)=C(CN2CCN(c3ccc(C(=O)NS(=O)(=O)c4ccc(N[C@H](CCN5CCOCC5)CSc5ccccc5)c(S(=O)(=O)C(F)(F)F)c4)cc3)CC2)C1 [Navitoclax] (partner 0.5 µM)
The method, boiled down:
as §1

Compound in the experiment “VX-702 + Dasatinib”: NC(=O)c1ccc(N(C(N)=O)c2c(F)cccc2F)nc1-c1ccc(F)cc1F [VX-702] + Cc1nc(Nc2ncc(C(=O)Nc3c(C)cccc3Cl)s2)cc(N2CCN(CCO)CC2)n1 [Dasatinib] (partner 0.075 µM)
In a few lines: as §1

Compound in the experiment “Dabrafenib + Crizotinib”: CC(C)(C)c1nc(-c2cccc(NS(=O)(=O)c3c(F)cccc3F)c2F)c(-c2ccnc(N)n2)s1 [Dabrafenib] + C[C@@H](Oc1cc(-c2cnn(C3CCNCC3)c2)cnc1N)c1c(Cl)ccc(F)c1Cl [Crizotinib] (partner 1 µM)
In a few lines:
as §1

As to PC-14, the relative viability with VX-702 + Luminespib (first compound 0.02 µM) came out at 0.138; with VX-702 + Luminespib (first compound 0.2 µM), 0.171; with VX-702 + Luminespib (first compound 0.6325 µM) it was 0.158; with VX-702 + Luminespib (first compound 2 µM), 0.175; in the experiment with VX-702 + Navitoclax (first compound 0.02 µM), 1.06; with VX-702 + Navitoclax (first compound 0.2 µM) it was 1.01. Moreover, the relative viability with VX-702 + Navitoclax (first compound 0.6325 µM) is 1.04; with VX-702 + Navitoclax (first compound 2 µM), 1.03; with VX-702 + Dasatinib (first compound 0.02 µM) it was 0.337; in the experiment with VX-702 + Dasatinib (first compound 0.2 µM), 0.323; with VX-702 + Dasatinib (first compound 0.6325 µM) it was 0.295; with VX-702 + Dasatinib (first compound 2 µM), 0.188. In addition, the relative viability came to 0.938 with Dabrafenib + Crizotinib (first compound 0.003 µM); 0.867 with Dabrafenib + Crizotinib (first compound 0.009487 µM); 0.878 in the experiment with Dabrafenib + Crizotinib (first compound 0.03 µM); 0.974 with Dabrafenib + Crizotinib (first compound 0.09487 µM); 0.982 in the experiment with Dabrafenib + Crizotinib (first compound 0.3 µM).

Turning to RERF-LC-KJ, the relative viability in the experiment with VX-702 + Luminespib (first compound 0.02 µM) worked out at 1.19; with VX-702 + Luminespib (first compound 0.2 µM), 1.2; with VX-702 + Luminespib (first compound 0.6325 µM) it was 1.12; in the experiment with VX-702 + Luminespib (first compound 2 µM), 1.67; with VX-702 + Navitoclax (first compound 0.02 µM), 1.18; in the experiment with VX-702 + Navitoclax (first compound 0.2 µM), 1.1. Further, the relative viability in the experiment with VX-702 + Navitoclax (first compound 0.6325 µM) came out at 0.83; in the experiment with VX-702 + Navitoclax (first compound 2 µM) it was 0.869; with VX-702 + Dasatinib (first compound 0.02 µM) it was 0.837; with VX-702 + Dasatinib (first compound 0.2 µM) it was 0.781; in the experiment with VX-702 + Dasatinib (first compound 0.6325 µM), 0.87; with VX-702 + Dasatinib (first compound 2 µM) it was 0.901. The relative viability amounted to 0.845 with Dabrafenib + Crizotinib (first compound 0.003 µM); 0.791 in the experiment with Dabrafenib + Crizotinib (first compound 0.009487 µM); 0.769 with Dabrafenib + Crizotinib (first compound 0.03 µM); 0.779 in the experiment with Dabrafenib + Crizotinib (first compound 0.09487 µM); 0.846 with Dabrafenib + Crizotinib (first compound 0.3 µM).

With ChaGo-K-1, the relative viability in the experiment with VX-702 + Luminespib (first compound 0.02 µM) amounted to 0.657; with VX-702 + Luminespib (first compound 0.2 µM), 0.46; with VX-702 + Luminespib (first compound 0.6325 µM), 0.586; with VX-702 + Luminespib (first compound 2 µM), 0.678; with VX-702 + Navitoclax (first compound 0.02 µM), 0.991; with VX-702 + Navitoclax (first compound 0.2 µM), 0.403. The relative viability with VX-702 + Navitoclax (first compound 0.6325 µM) was 0.898; with VX-702 + Navitoclax (first compound 2 µM), 1.4; with VX-702 + Dasatinib (first compound 0.02 µM), 0.769; in the experiment with VX-702 + Dasatinib (first compound 0.2 µM) it was 0.584; with VX-702 + Dasatinib (first compound 0.6325 µM), 0.622; in the experiment with VX-702 + Dasatinib (first compound 2 µM) it was 0.614. Further, the relative viability was 1.16 with Dabrafenib + Crizotinib (first compound 0.009487 µM), 1.15 with Dabrafenib + Crizotinib (first compound 0.03 µM), 1.03 in the experiment with Dabrafenib + Crizotinib (first compound 0.09487 µM) and 1.12 with Dabrafenib + Crizotinib (first compound 0.3 µM).

Consider H3255, for which the relative viability with VX-702 + Luminespib (first compound 0.02 µM) stood at 1.09; with VX-702 + Luminespib (first compound 0.2 µM), 0.803; with VX-702 + Luminespib (first compound 0.6325 µM), 0.957; in the experiment with VX-702 + Luminespib (first compound 2 µM), 1.11; in the experiment with VX-702 + Navitoclax (first compound 0.02 µM), 0.508; with VX-702 + Navitoclax (first compound 0.2 µM), 0.446. Further, the relative viability with VX-702 + Navitoclax (first compound 0.6325 µM) came to 0.501; in the experiment with VX-702 + Navitoclax (first compound 2 µM), 0.557; with VX-702 + Dasatinib (first compound 0.02 µM) it was 0.312; with VX-702 + Dasatinib (first compound 0.2 µM), 0.301; in the experiment with VX-702 + Dasatinib (first compound 0.6325 µM), 0.44; with VX-702 + Dasatinib (first compound 2 µM), 0.409. Moreover, the relative viability with Dabrafenib + Crizotinib (first compound 0.003 µM) worked out at 0.968; with Dabrafenib + Crizotinib (first compound 0.009487 µM), 1.19; in the experiment with Dabrafenib + Crizotinib (first compound 0.03 µM), 0.954; in the experiment with Dabrafenib + Crizotinib (first compound 0.09487 µM), 0.873; in the experiment with Dabrafenib + Crizotinib (first compound 0.3 µM), 0.906.

Turning to NCI-H1299, the relative viability with VX-702 + Navitoclax (first compound 0.02 µM) was 1.1; in the experiment with VX-702 + Navitoclax (first compound 0.2 µM), 1.08; with VX-702 + Navitoclax (first compound 0.6325 µM), 1.07; with VX-702 + Navitoclax (first compound 2 µM), 1.15; with Dabrafenib + Crizotinib (first compound 0.003 µM), 1.01; in the experiment with Dabrafenib + Crizotinib (first compound 0.009487 µM), 0.91. Moreover, the relative viability in the experiment with Dabrafenib + Crizotinib (first compound 0.03 µM) turned out to be 0.961; with Dabrafenib + Crizotinib (first compound 0.09487 µM), 0.882; with Dabrafenib + Crizotinib (first compound 0.3 µM), 0.806.

Regarding NCI-H1563, the relative viability with VX-702 + Luminespib (first compound 0.02 µM) stood at 0.528; with VX-702 + Luminespib (first compound 0.2 µM), 0.506; with VX-702 + Luminespib (first compound 0.6325 µM), 0.509; with VX-702 + Luminespib (first compound 2 µM), 0.479; in the experiment with VX-702 + Dasatinib (first compound 0.02 µM), 0.395; in the experiment with VX-702 + Dasatinib (first compound 0.2 µM) it was 0.445. Also, the relative viability with VX-702 + Dasatinib (first compound 0.6325 µM) turned out to be 0.416; with VX-702 + Dasatinib (first compound 2 µM), 0.451; with Dabrafenib + Crizotinib (first compound 0.003 µM), 0.865; with Dabrafenib + Crizotinib (first compound 0.009487 µM) it was 0.933; with Dabrafenib + Crizotinib (first compound 0.03 µM), 0.868; in the experiment with Dabrafenib + Crizotinib (first compound 0.09487 µM), 0.908. In addition, the relative viability with Dabrafenib + Crizotinib (first compound 0.3 µM) worked out at 0.953.

On to A549, for which the relative viability with VX-702 + Navitoclax (first compound 0.02 µM) was determined as 1.25; with VX-702 + Navitoclax (first compound 0.2 µM), 1.23; in the experiment with VX-702 + Navitoclax (first compound 0.6325 µM), 1.28; with VX-702 + Navitoclax (first compound 2 µM), 1.42; in the experiment with Dabrafenib + Crizotinib (first compound 0.003 µM), 0.805; in the experiment with Dabrafenib + Crizotinib (first compound 0.009487 µM), 0.763. The relative viability with Dabrafenib + Crizotinib (first compound 0.03 µM) was found to be 0.887; in the experiment with Dabrafenib + Crizotinib (first compound 0.09487 µM), 0.737; with Dabrafenib + Crizotinib (first compound 0.3 µM), 0.768.

For the cell line NCI-H661, the relative viability came to 0.905 in the experiment with VX-702 + Luminespib (first compound 0.02 µM); 0.919 in the experiment with VX-702 + Luminespib (first compound 0.2 µM); 0.995 with VX-702 + Luminespib (first compound 0.6325 µM); 1.06 with VX-702 + Luminespib (first compound 2 µM); 0.841 with VX-702 + Dasatinib (first compound 0.02 µM); 0.811 with VX-702 + Dasatinib (first compound 0.2 µM). In addition, the relative viability in the experiment with VX-702 + Dasatinib (first compound 0.6325 µM) stood at 0.995; in the experiment with VX-702 + Dasatinib (first compound 2 µM), 1.06; with Dabrafenib + Crizotinib (first compound 0.003 µM) it was 1.07; in the experiment with Dabrafenib + Crizotinib (first compound 0.009487 µM), 0.958; with Dabrafenib + Crizotinib (first compound 0.09487 µM) it was 0.96; in the experiment with Dabrafenib + Crizotinib (first compound 0.3 µM), 1.04.

On to NCI-H650, for which the relative viability came to 0.661 with VX-702 + Luminespib (first compound 0.02 µM); 0.78 in the experiment with VX-702 + Luminespib (first compound 0.6325 µM); 0.961 in the experiment with VX-702 + Luminespib (first compound 2 µM); 0.481 with VX-702 + Dasatinib (first compound 0.02 µM); 0.534 in the experiment with VX-702 + Dasatinib (first compound 0.6325 µM); 0.533 in the experiment with VX-702 + Dasatinib (first compound 2 µM). Further, the relative viability with Dabrafenib + Crizotinib (first compound 0.009487 µM) came out at 0.715; with Dabrafenib + Crizotinib (first compound 0.03 µM), 0.657; with Dabrafenib + Crizotinib (first compound 0.09487 µM), 0.515; in the experiment with Dabrafenib + Crizotinib (first compound 0.3 µM) it was 0.551.

For the cell line HCC-366, the relative viability with VX-702 + Navitoclax (first compound 0.02 µM) worked out at 0.971; with VX-702 + Navitoclax (first compound 0.2 µM) it was 0.988; with VX-702 + Navitoclax (first compound 0.6325 µM), 1.1; in the experiment with VX-702 + Navitoclax (first compound 2 µM) it was 0.918; with VX-702 + Dasatinib (first compound 0.02 µM), 0.786; with VX-702 + Dasatinib (first compound 0.2 µM) it was 0.601. Also, the relative viability with VX-702 + Dasatinib (first compound 0.6325 µM) was 0.598; with VX-702 + Dasatinib (first compound 2 µM) it was 0.22; with Dabrafenib + Crizotinib (first compound 0.009487 µM), 0.542; with Dabrafenib + Crizotinib (first compound 0.03 µM) it was 0.436; in the experiment with Dabrafenib + Crizotinib (first compound 0.09487 µM), 0.44; with Dabrafenib + Crizotinib (first compound 0.3 µM), 0.572.

IA-LM: the relative viability was 0.928 with VX-702 + Navitoclax (first compound 0.02 µM); 0.853 in the experiment with VX-702 + Navitoclax (first compound 0.2 µM); 0.658 with VX-702 + Navitoclax (first compound 0.6325 µM); 0.905 in the experiment with VX-702 + Navitoclax (first compound 2 µM); 1.01 with Dabrafenib + Crizotinib (first compound 0.003 µM); 0.756 in the experiment with Dabrafenib + Crizotinib (first compound 0.009487 µM). Further, the values for the relative viability in the experiment with Dabrafenib + Crizotinib (first compound 0.03 µM), with Dabrafenib + Crizotinib (first compound 0.09487 µM) and with Dabrafenib + Crizotinib (first compound 0.3 µM) were 0.702, 0.628 and 0.46, respectively.
